For orientation: IC50 means the concentration that gives 50% inhibition. The low end stands for greater potency in that assay, the high end for weaker potency in that assay.

In series [1] the test system is human lung carcinoma cells (A549). Briefly: Cytotoxicity, MTT assay, A549. Format: cell-based. To be noted: for IC50: MTT, 24 h. A digest of the protocol: (§1)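 Cells were seeded at 1 × 10^4 cells/well in DMEM or 1640, grown 24 h, then exposed for 24 h to compounds at 0.01–50 μg/mL (0.1% DMSO). MTT was added for 4 h at 37 °C, formazan dissolved in DMSO and absorbance read at 570 nm; IC50 from triplicate viability data.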
(Formazan colour is commonly taken as a measure of viable cells.)

Series [2] deals with human gastric adenocarcinoma cells (SGC7901). Briefly: Cytotoxicity, MTT assay, SGC7901. Format: cell-based. A digest of the protocol:
as §1

Series [3] relates to human liver hepatocellular carcinoma cell line (HepG2). In words: Cytotoxicity, MTT assay, HepG2. Format: cell-based. To be noted: for IC50: MTT, 24 h. A digest of the protocol:
as §1

Series [4] concerns human acute mononuclear granulocyte leukaemia (THP-1). Briefly: Cytotoxicity, MTT assay, THP-1. Format: cell-based. To be noted: for IC50: MTT, 24 h. A digest of the protocol:
as §1

The test system of series [5] is TNF-α production in LPS-stimulated RAW264.7 cells. Briefly: TNF-α production in LPS-stimulated RAW264.7 cells, ELISA. To be noted: BAPs 6.0 μM, PDTC 30 μM, LPS 1.0 μg/mL. Format: cell-based. How it is done: The anti-inflammatory activities of BAPs were evaluated by ELISA. After pretreated with 30 μM of positive drug pyrrolidinedithiocarbamate (PDTC) or 6 μM of BAPs for 2 h, cells were treated with LPS (1.0 μg/mL) for 22 h. The culture media were collected and centrifuged for detecting the expression levels of TNF-α by an ELISA kit (eBioScience, San Diego, CA).
TNF-α is a common pro-inflammatory factors that can be produced by LPS-stimulated RAW264.7 macrophage[14]^,[24]. In order to evaluate the anti-inflammatory activity of BAPs, the effect of BAPs on TNF-α production in LPS-stimulated RAW264.7 cells was detected by ELISA. […] Only 92 presented slightly lower expression of TNF-α secretion (about 57%).
For orientation: In an ELISA, binding on a coated surface is turned into a signal by an enzyme label.

Series [6] has as its system Bcl-2 expression in HepG2 cells. Briefly: Western blot, Bcl-2 expression in HepG2 cells. Type of series: cell-based, human. To be noted: HepG2, 1.0, 2.0, and 4.0 μM. How it is done: (§2) The HepG2 cells were treated with BAP 96 at different concentrations (1.0, 2.0, and 4.0 µM) for 3 h, and washed twice by PBS. The cells were lysed and the extracted proteins of cell lysates were separated by 10% SDS-PAGE gel electrophoresis, then transferred onto polyvinylidene fluorides membranes. The membranes were probed with antibodies and visualized using an enhanced chemiluminescence (ECL) detection kit.

Series [7] has as its system p-IκBα in LPS-stimulated RAW264.7 cells. In words: LPS-stimulated phosphorylation of IκBα in RAW264.7 cells. To be noted: RAW264.7, 1.0, 2.0, 4.0 μM. Type of series: cell-based. How it is done: as §2
(§3) It is known that NF-κB has been implicated in the crossroad of inflammation and cancer[25]^,[26]. In our previous study, some BAPs (such as 23 and 67) could inhibit NF-κB activation by inhibiting the phosphorylation of NF-κB (P65) and IκB[13]^,[14]. Herein, it is an urgent to resolve whether 96 has the same mechanism of action as 23 and 67. Therefore, the RAW264.7 cells were pretreated with LPS, and then treated with different concentrations (1.0, 2.0, 4.0 μM) of 96. […] Similarly, the HepG2 cells were pretreated with TNF-α, then treated with different concentrations (1.0, 2.0, and 4.0 μM) of 96.

The test system of series [8] is p-p65 in TNF-α-stimulated HepG2 cells. Briefly: TNF-α-stimulated phosphorylation of p65 in HepG2 cells. Type of series: cell-based, human. To be noted: HepG2, 1.0, 2.0, and 4.0 μM. How it is done:
as §2, §3

Series [9] can be described thus: Body weight of xenograft mice. Type of series: in vivo. The settings on record: 0.2, 1.0, 5.0 mg/kg i.p. every 2 d for 20 days. As to the method:
(§4) The HepG2 cells xenografts were established using the Balb/c nude mice (female, 7-week-old, 17–19 g, n = 30) (Shanghai Laboratory Animal Center, Shanghai Shi, China) were used to investigate the anti-hepatoma effect of 96. Animal experiments were reviewed and approved by the Binzhou Medical University Experimental Animal Committee. Briefly, HepG2 cells (1 × 10^7/0.2 ml PBS/mouse) were inoculated subcutaneously. Three days after the inoculation, the mice were randomly divided into five groups: the saline treated group (Control), 96 (0.2 mg/kg) group, 96 (1.0 mg/kg) treated group, 96 (5.0 mg/kg) treated group, and DOX (1.0 mg/kg) treated group. 96 were dissolved in saline containing 1% of DMSO and administered intraperitoneally every 2 d for 20 days. DOX was also administered intraperitoneally every 2 d for 20 d. The body weight and HepG2 xenografts volumes were recorded from the day of treatment, and xenografts volumes were calculated using the equation: tumour volume = length×(width)[2]×π/6. At the end of the experiment, mice were sacrificed and the xenografts were obtained for western blotting, HE staining and immunohistochemistry staining.

Series [10] concerns Bcl-2 expression in HepG2 xenografts. Briefly: Immunohistochemistry staining of Bcl-2 in HepG2 xenografts. Type of series: in vivo, Balb/c nude mice. To be noted: 96 5.0 mg/kg, DOX 1.0 mg/kg, versus model group. How it is done: as §4
The HepG2 xenografts tissues were embedded using the paraffin, and sectioned for HE staining and immunohistochemistry staining. HE staining was performed routinely. The immunohistochemistry staining carried out as following. […]

The mark [11] stands for this setting: quotient of IC50 towards LO2 cells.

Turning to `CN1CC(=Cc2cccc(N=Cc3cc(Br)ccc3O)c2)C(=O)C(=Cc2ccccc2F)C1` [Compound 96], the IC50 in series [1] (Homo sapiens, A549, 24 h) is less than 2000 nM; in series [1] it was 1600 ± 400 nM; in [2] (Homo sapiens, SGC-7901, MTT, 24 h), 2400 ± 800 nM; in series [3] (Homo sapiens, HepG2, 24 h), less than 2000 nM; in series [3] it was 1000 ± 400 nM; in series [4] (Homo sapiens, THP-1, 24 h), less than 2000 nM. Moreover, in series [4], the IC50 came to 1100 ± 600 nM. In addition, the “A549 SI (selectivity index)” value in series [1] (setting [11]) is reported as 12.4. In [2] (setting [11]), the “SGC7901 SI (selectivity index)” value is 8.3. For the same compound, in series [3] (setting [11]), the “HepG2 SI (selectivity index)” value was determined as 19.9. The “THP-1 SI (selectivity index)” value in series [4] (setting [11]) is on record as 18.1. The “Inhibition of TNF-α secretion compared with PDTC (in words)” value in series [5] is “strongest inhibitory effect”. The TNF-α secretion in series [5] is 45%. In addition, the “Expression of anti-apoptotic protein Bcl-2” value in series [6] is reported as “decreased in a dose-dependent manner”. For the same compound, the “Expression level of LPS-induced p-IκBα” value in series [7] is on record as “effectively decreased in a dose-dependent manner”. Further, in [8], the “Phosphorylation of p65 induced by TNF-α” value is recorded as “dose-dependent downward trend”. In addition, the “Toxicity judged by mice body weight” value in [9] is on record as “correspondingly nontoxic at the experimental doses”. In series [10], the “Bcl-2 expression, immunohistochemistry” value is “significantly reduced”.

The record behind these values is paper PMC6691761, “Potential multifunctional agents with anti-hepatoma and anti-inflammation properties by inhibiting NF-кB activation” (Journal of Enzyme Inhibition and Medicinal Chemistry, 2019).
